The text below walks through data of publication PMC11855827, “High-Throughput Screening of Five Compound Libraries for Anthelmintic Activity and Toxicity Leads to the Discovery of Two Flavonoid Compounds” (International Journal of Molecular Sciences, 2025).

Several values for one entry are separate records, joined by “and”; a condition that tells them apart may be missing. Equal entries are not always repeated. Where two headings read alike, the source gives them in different places.

The test relates to C. elegans.
Where [1] appears, read: Table S2, C. elegans SS assay, 110 μM, 0 h, averages of 4 data points.
Setting [2] is: Table S2, C. elegans SS assay, 110 μM, 24 h, averages of 4 data points.

On to Ginkgolide J, for which the “Percentage of motility inhibition 0 h” value under setting [1] is 0%. The “Percentage of motility inhibition 24 h” value under setting [2] stood at 25%.

Take Capsaicin β‐D‐glucopyrano side: for the setting “110 µM”, the “Percentage of motility inhibition 0 h” value is reported as 3% and the “Percentage of motility inhibition 24 h” value came out at 0%.

`Cl.Nc1ncnc2nc[nH]c12` [Adenine (hydrochloride)]: the “Percentage of motility inhibition 0 h” value under setting [1] was 0%. In addition, the “Percentage of motility inhibition 24 h” value under setting [2] is reported as 0%.

For `COc1ccc2cc1Oc1ccc(cc1)C[C@H]1c3cc(c(OC)cc3CCN1C)Oc1c(O)c(OC)cc3c1[C@H](C2)N(C)CC3` [(R)‐Fangchinoline], the “Percentage of motility inhibition 0 h” value under setting [1] stood at 44%. Besides, the “Percentage of motility inhibition 24 h” value under setting [2] is listed as 1%.

`C[C@@]1(O)[C@H](O)[C@@H](CO)O[C@H]1n1ccc(N)nc1=O` [NM107]: under setting [1], the “Percentage of motility inhibition 0 h” value came out at 37%. Besides, under setting [2], the “Percentage of motility inhibition 24 h” value is recorded as 27%.

With `COc1cc2c(cc1OC)-c1c(C)c3ccc(OC)c(OC)c3c[n+]1CC2.[OH-]` [Dehydrocorydaline (hydroxyl)], the “Percentage of motility inhibition 0 h” value under setting [1] turned out to be 2%. Also, the “Percentage of motility inhibition 24 h” value under setting [2] stood at 0%.

`CC1(C)CCC[C@]2(C)[C@@H]1CC[C@@]13C[C@H](CC[C@H]12)[C@@](O)(CO)C3` [Kauran-16,17-diol]: under setting [1], the “Percentage of motility inhibition 0 h” value was 0%. For the same compound, the “Percentage of motility inhibition 24 h” value under setting [2] is given as 22%.

Take `CN[C@@H]1[C@H](O[C@H]2[C@H](O[C@H]3[C@H](O)[C@@H](O)[C@H](N=C(N)N)[C@@H](O)[C@@H]3N=C(N)N)O[C@@H](C)[C@]2(O)C=O)O[C@@H](CO)[C@H](O)[C@H]1O.CN[C@@H]1[C@H](O[C@H]2[C@H](O[C@H]3[C@H](O)[C@@H](O)[C@H](N=C(N)N)[C@@H](O)[C@@H]3N=C(N)N)O[C@@H](C)[C@]2(O)C=O)O[C@@H](CO)[C@H](O)[C@H]1O.O=S(=O)(O)O.O=S(=O)(O)O.O=S(=O)(O)O` [Streptomycin (sulfate)]: the “Percentage of motility inhibition 0 h” value under setting [1] worked out at 31%. Moreover, under setting [2], the “Percentage of motility inhibition 24 h” value was found to be 26%.

On to `C[C@@H]1O[C@@H](O[C@H]2[C@H](O[C@H]3CC[C@@]4(C)[C@@H](CC[C@]5(C)[C@@H]4CC=C4[C@@H]6CC(C)(C)CC[C@]6(C(=O)O[C@@H]6O[C@H](CO[C@@H]7O[C@H](CO)[C@@H](O)[C@H](O)[C@H]7O)[C@@H](O)[C@H](O)[C@H]6O)CC[C@]45C)[C@]3(C)CO)OC[C@H](O)[C@@H]2O)[C@H](O)[C@H](O[C@@H]2O[C@H](CO)[C@@H](O[C@@H]3O[C@H](CO)[C@@H](O)[C@H](O)[C@H]3O)[C@H](O)[C@H]2O)[C@H]1O` [Macranthoidin B], for which the “Percentage of motility inhibition 0 h” value under setting [1] turned out to be 6%. Further, the “Percentage of motility inhibition 24 h” value under setting [2] is recorded as 0%.

Consider `COC1=C[C@@H]2[C@@H]3Cc4ccc(OC)c(O)c4[C@]2(CCN3C)CC1=O.Cl` [Sinomenine hydrochloride], for which the “Percentage of motility inhibition 24 h” value under setting [2] is 0% and 8%.

As to `COc1ccc2[nH]cc(CCO)c2c1` [5‐Methoxytryptophol], the “Percentage of motility inhibition 0 h” value under setting [1] is on record as 25%. In addition, the “Percentage of motility inhibition 24 h” value under setting [2] came out at 7%.

As for `CC(C)OC(=O)[C@H](C)N[P@](=O)(CO[C@H](C)Cn1cnc2c(N)ncnc21)Oc1ccccc1.CC(C)OC(=O)[C@H](C)N[P@](=O)(CO[C@H](C)Cn1cnc2c(N)ncnc21)Oc1ccccc1.O=C(O)/C=C/C(=O)O` [GS‐7340 (hemifumarate)], the “Percentage of motility inhibition 0 h” value under setting [1] is on record as 21%. Further, the “Percentage of motility inhibition 24 h” value under setting [2] is recorded as 0%.

Take `COc1cc(-c2oc3cc(O)cc(O)c3c(=O)c2O[C@@H]2O[C@H](CO)[C@@H](O)[C@H](O)[C@H]2O[C@@H]2O[C@@H](C)[C@H](O)[C@@H](O)[C@H]2O)ccc1O` [Isorhamnetin‐3‐O‐neohespeidoside]: under setting [1], the “Percentage of motility inhibition 0 h” value is reported as 45%. Moreover, the “Percentage of motility inhibition 24 h” value under setting [2] came to 5%.

For the compound `COc1cc2c(cc1OC)[C@H]1[C@@H](C)c3ccc(OC)c(OC)c3CN1CC2` [Corydaline], the “Percentage of motility inhibition 0 h” value under setting [1] is reported as 0%. Moreover, under setting [2], the “Percentage of motility inhibition 24 h” value was found to be 8%.

Take `C[C@H]1O[C@H](OC2[C@@H](O)[C@@H](O)C(O)[C@H](O)[C@H]2O)[C@@H](N)C[C@@H]1N=C(N)C(=O)O.Cl.O` (stereo partly shown) [Kasugamycin (hydrochloride hydrate)]: the “Percentage of motility inhibition 0 h” value under setting [1] was 12%. Also, the “Percentage of motility inhibition 24 h” value under setting [2] amounted to 0%.

On to `C[C@@H]1O[C@@H](O[C@H]2[C@H](Oc3cc(O)c(C(=O)CCc4ccc(O)cc4)c(O)c3)O[C@H](CO)[C@@H](O)[C@@H]2O)[C@H](O)[C@H](O)[C@H]1O` [Naringin Dihy drochalcone], for which the “Percentage of motility inhibition 0 h” value under setting [1] turned out to be 14%. Moreover, under setting [2], the “Percentage of motility inhibition 24 h” value was 1%.

For the compound `O=c1c(O[C@@H]2O[C@H](CO)[C@H](O)[C@H](O)[C@H]2O[C@@H]2O[C@H](CO)[C@@H](O)[C@H](O)[C@H]2O)c(-c2ccc(O)cc2)oc2cc(O)cc(O)c12` [Panasenoside], the “Percentage of motility inhibition 0 h” value under setting [1] turned out to be 6%. Besides, the “Percentage of motility inhibition 24 h” value under setting [2] turned out to be 31%.

On to `CO/N=C(\C(=O)N[C@@H]1C(=O)N2C(C(=O)OCOC(=O)C(C)(C)C)=C(C)CS[C@H]12)c1csc(N)n1.Cl` [Cefetamet pivoxil (hydrochloride)], for which the “Percentage of motility inhibition 0 h” value under setting [1] is 55%. The “Percentage of motility inhibition 24 h” value under setting [2] amounted to 17%.

For `Cc1c2ccncc2c(C)c2c1[nH]c1ccccc12.Cl` [Ellipticine (hydrochloride)], the “Percentage of motility inhibition 0 h” value under setting [1] was determined as 9%. The “Percentage of motility inhibition 24 h” value under setting [2] is listed as 11%.

For the compound `Cn1nnnc1SCC1=C(C(=O)[O-])N2C(=O)[C@@H](NC(=O)[C@H](OC=O)c3ccccc3)[C@H]2SC1.[Na+]` [Cefamandole (nafate)], the “Percentage of motility inhibition 0 h” value under setting [1] was 0%. For the same compound, the “Percentage of motility inhibition 24 h” value under setting [2] is recorded as 0%.

As to `C[C@H](CCC(=O)O)[C@H]1CC(=O)[C@@]2(C)C3=C(C(=O)C[C@]12C)[C@@]1(C)CCC(=O)C(C)(C)[C@@H]1C[C@@H]3O` [Lucideric acid A], the “Percentage of motility inhibition 0 h” value under setting [1] came out at 0%. In addition, under setting [2], the “Percentage of motility inhibition 24 h” value is recorded as 20%.

For the compound `C[C@@]12C[C@@H](c3ccoc3)OC(=O)[C@@H]1CC[C@]1(C)[C@H]2[C@@H]2C=C[C@@]1(O)C(=O)O2` [Columbin], the “Percentage of motility inhibition 0 h” value under setting [1] is 0%. Further, the “Percentage of motility inhibition 24 h” value under setting [2] worked out at 1%.

In the case of (+)‐Sparteine (sulfate pentahydrate), under setting [1], the “Percentage of motility inhibition 0 h” value was determined as 0%. Further, the “Percentage of motility inhibition 24 h” value under setting [2] turned out to be 0%.

Consider `C/C1=C\C(=O)c2c(C)coc2C/C(C)=C/CC1` [Furanodienone], for which the “Percentage of motility inhibition 0 h” value under setting [1] was determined as 0%. For the same compound, under setting [2], the “Percentage of motility inhibition 24 h” value is on record as 0%.

As for Protopine, under setting [1], the “Percentage of motility inhibition 0 h” value amounted to 0%. Further, the “Percentage of motility inhibition 24 h” value under setting [2] was 0%.

On to `COc1cc(/C=C/C(=O)NCCc2c[nH]c3ccc(O)cc23)ccc1O` [N‐Feruloylserotonin], for which the “Percentage of motility inhibition 0 h” value under setting [1] is on record as 11%. Moreover, the “Percentage of motility inhibition 24 h” value under setting [2] is 18%.

Turning to `Cc1onc(-c2ccccc2)c1C(=O)N[C@@H]1C(=O)N2[C@@H]1SC(C)(C)[C@@H]2C(=O)[O-].O.[Na+]` [Oxacillin (sodium monohydrate)], the “Percentage of motility inhibition 0 h” value under setting [1] stood at 27%. For the same compound, the “Percentage of motility inhibition 24 h” value under setting [2] is reported as 9%.

On to `CC[C@H]1OC(=O)C[C@@H](O)[C@H](C)[C@@H](O[C@@H]2O[C@H](C)[C@@H](O)[C@H](N(C)C)[C@H]2O)[C@@H](CCN2C[C@H](C)C[C@H](C)C2)C[C@@H](C)C(=O)/C=C/C(C)=C/[C@@H]1CO[C@@H]1O[C@H](C)[C@@H](O)[C@@H](OC)[C@H]1OC.O=P(O)(O)O` [Tilmicosin (phosphate)], for which the “Percentage of motility inhibition 0 h” value under setting [1] came out at 6%. Moreover, the “Percentage of motility inhibition 24 h” value under setting [2] was 10%.

Regarding `CC(=O)c1cc2c(CO)cc(O)cc2oc1=O` [Armillarisin A], the “Percentage of motility inhibition 0 h” value under setting [1] is on record as 0%. The “Percentage of motility inhibition 24 h” value under setting [2] is on record as 4%.

Regarding `CC[C@@H](CO)NCCN[C@@H](CC)CO.Cl.Cl` [Ethambutol (dihydrochloride)], under setting [1], the “Percentage of motility inhibition 0 h” value amounted to 26%. Further, the “Percentage of motility inhibition 24 h” value under setting [2] amounted to 6%.

With `CC[C@@]1(O)C(=O)OCc2c1cc1n(c2=O)Cc2cc3c(CN(C)C)c(O)ccc3nc2-1.Cl` [Topotecan (hydrochloride)], the “Percentage of motility inhibition 0 h” value under setting [1] came to 19%. Also, the “Percentage of motility inhibition 24 h” value under setting [2] was 6%.

Turning to `C[C@@H]1CC[C@@]2(NC1)O[C@H]1C[C@H]3[C@@H]4CC=C5C[C@@H](O[C@@H]6O[C@H](CO)[C@@H](O[C@@H]7O[C@@H](C)[C@H](O)[C@@H](O)[C@H]7O)[C@H](O)[C@H]6O)CC[C@]5(C)[C@H]4CC[C@]3(C)[C@H]1[C@@H]2C` [Khasianine], under setting [1], the “Percentage of motility inhibition 0 h” value came out at 19%. Moreover, the “Percentage of motility inhibition 24 h” value under setting [2] was found to be 10%.

Turning to `CCCCC/C=C\C/C=C\CCCCCCCC(=O)NCc1ccccc1` [N‐Benzyllinoleamide], the “Percentage of motility inhibition 0 h” value under setting [1] came out at 0%. Also, under setting [2], the “Percentage of motility inhibition 24 h” value turned out to be 0%.

As to `Clc1ccc(C(Cn2ccnc2)OCc2ccc(Sc3ccccc3)cc2)c(Cl)c1.O=[N+]([O-])O` (stereo not shown) [Fenticonazole (Nitrate)], under setting [1], the “Percentage of motility inhibition 0 h” value worked out at 45%. Further, under setting [2], the “Percentage of motility inhibition 24 h” value is given as 13%.

`COc1cc2c(cc1OC)C1Cc3ccc4c(c3CN1CC2)OCO4` (stereo not shown) [Tetrahydroepiberberine]: the “Percentage of motility inhibition 0 h” value under setting [1] was 10%. Further, the “Percentage of motility inhibition 24 h” value under setting [2] is reported as 3%.

On to `C=C(C)[C@@H]1CC[C@]2(C(=O)O[C@@H]3O[C@H](CO[C@@H]4O[C@H](CO)[C@@H](O[C@@H]5O[C@@H](C)[C@H](O)[C@@H](O)[C@H]5O)[C@H](O)[C@H]4O)[C@@H](O)[C@H](O)[C@H]3O)CC[C@]3(C)[C@H](CC[C@@H]4[C@@]5(C)CC[C@H](O[C@@H]6OC[C@H](O)[C@H](O)[C@H]6O[C@@H]6O[C@@H](C)[C@H](O)[C@@H](O)[C@H]6O)[C@@](C)(CO)[C@@H]5CC[C@]43C)[C@@H]12` [Pulchinenoside C], for which, under setting [1], the “Percentage of motility inhibition 0 h” value amounted to 4%. Under setting [2], the “Percentage of motility inhibition 24 h” value is 0%.

For `C=C1[C@H]2CC[C@@H]3[C@H]2C(C)(C)CCC[C@]13C` [(+)-Longifolene], the “Percentage of motility inhibition 0 h” value under setting [1] was 3%. Moreover, the “Percentage of motility inhibition 24 h” value under setting [2] was 1%.
